# Measured values taken from patent publication US20260200849A1, “CATIONIC LIPIDS AND PREPARATION METHOD THEREOF” (RiboX Therapeutics HK Limited, priority 2024, published 2026).
# What was measured:
# [1] = test system: IL-6; assay: In vivo tolerability by IM: serum IL-6 by Luminex; details: IM 1.0 mg/kg, male C57BL/6J mice N=3, Formulation 001, RNA 331
# Method: 6-8 week old, male C57BL/6J mice (N=3) were injected with 1.0 mg*kg−1 of RNA-LNPs encoding for firefly-luciferase by intramuscular injection. At 2- and 24-hours post injection, about 40 μL blood was harvested and immediately added to the procoagulant containing tube. Stand for 30 min at room temperature and then centrifuged at 2500 g×10 min to obtain serum. About 15 μL serum samples were aliquoted for cytokine (MCP-1 and IL-6) detection by Luminex (ProcartaPlex Mouse 2-plex, Thermo). PBS group as negative control.
# [2] = test system: hEPO; assay: In vivo expression by IM: serum hEPO concentration by ELISA; details: IM 0.075 mg/kg, male C57BL/6J mice N=3, Formulation 001, RNA 019
# Method: Circular RNA payloads were suspended in 25 mM Acetate Buffer (pH 4.5). To form LNPs, three volumes of human erythropoietin (hEPO) encoding cirRNA (SEQ ID NO:2), were mixed with one volume of lipids in ethanol solution by microfluidic mixing with the INano™ L+ (Micro& Nano) at a flow rate of 12 ml/min. The molar ratio of ionizable lipid to ribonucleotide was 6. After encapsulation, the particles were dialyzed twice against PBS. The LNP formulation was concentrated to targeted RNA concentration by Amicon® Ultra Centrifugal Filter (100 kDa MWCO) and filtered by a 0.65/0.22 um sterile filter.
# 6-8 week old, male C57BL/6J mice (N=3) were injected with 0.075 mg*kg−1 of RNA-LNPs encoding for hEPO by intramuscular injection. At 2-/6-/24-/48-/72 h-hours post injection, about 80 μL blood will be harvested and immediately added to the procoagulant containing tube. Stand for 30 min at room temperature and then centrifuged at 2500 g×10 min to obtain serum. About 30 μL serum samples will be aliquoted for hEPO concentration detection by ELISA kit (STEMCELL Technologies).
# [3] = test system: C57BL/6J mice; assay: In vivo expression by IM, luciferase RNA-LNPs, whole-body/injection site muscle/organ luminescence; details: IM 1.0 mg/kg, 24 h post injection, male C57BL/6J mice N=3, Formulation 001, RNA 331
# Method: 6-8 week old, male C57BL/6J mice (N=3) were injected with 1.0 mg*kg−1 of RNA-LNPs encoding for firefly-luciferase by intramuscular injection. At 24-hours post injection, animals were intraperitoneally injected with 15 mg/ml of Luciferin substrate and whole-body/injection site muscle/liver/spleen/kidney/heart/lung luminescence were determined by a bioluminescent in vivo imaging system (IVIS).
# [4] = test system: IL-6; assay: In vivo tolerability by IV: serum IL-6 by Luminex; design: species or system C57BL/6J mice; details: Formulation No. 001, RNA No. 331, male C57BL/6J mice, 1.0 mg*kg/1 intravenous
# In short: (§1)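 Male C57BL/6J mice aged 6-8 weeks (N=3) received 1.0 mg*kg−1 firefly-luciferase RNA-LNPs intravenously, with PBS as negative control. Serum taken at 2 and 24 h post-injection was assayed for MCP-1 and IL-6 by Luminex.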
# [5] = test system: C57BL/6J mice; assay: In vivo expression by IV, 1.0 mg/kg luciferase RNA-LNPs, whole-body and organ IVIS luminescence; details: Formulation No. 001, RNA No. 331; male C57BL/6J mice, 1.0 mg*kg−1 intravenous, 24-hours post injection
# In short: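 Male C57BL/6J mice, 6-8 weeks old (N=3), received 1.0 mg*kg−1 firefly-luciferase RNA-LNPs IV. At 24 h post-dose, luciferin (15 mg/ml) was given IP, and whole-body, liver, spleen, kidney, small and large intestine luminescence was imaged by IVIS.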
# [6] = test system: MCP-1; assay: In vivo tolerability by IV: serum MCP-1 by Luminex; design: species or system C57BL/6J mice; details: Formulation No. 001, RNA No. 331, male C57BL/6J mice, 1.0 mg*kg/1 intravenous
# In short: as §1
Structure (SMILES),IL-6 at 2 h [1] [pg/mL],IL-6 at 24 h [1] [pg/mL],Heart (p/s) [3] [p/s],Injection site muscle (p/s) [3] [p/s],Kidney (p/s) [3] [p/s],Liver (p/s) [3] [p/s],Lung (p/s) [3] [p/s],Spleen (p/s) [3] [p/s],Whole body (p/s) [3] [p/s],also measured
CCCCC/C=C\C/C=C\CCCCCCCC(=O)NC(COC(=O)NCCN1CCCCC1)C(=O)OCCCCCCCC(=O)OC(CCCCCCCC)CCCCCCCC (stereo not drawn) [Lipid 549],27,146,8.09E+05,2.75E+08,1.23E+07,1.76E+08,1.24E+06,6.26E+07,1.10E+09,hEPO conc. (ng/mL) at 2 h ([2]; 2 h): 2.47 ng/mL; hEPO conc. (ng/mL) at 6 h ([2]; 6 h): 7.26 ng/mL; hEPO conc. (ng/mL) at 24 h ([2]; 24 h): 12.57 ng/mL; hEPO conc. (ng/mL) at 48 h ([2]; 48 h): 2.61 ng/mL; hEPO conc. (ng/mL) at 72 h ([2]; 72 h): 0.87 ng/mL
CCCCCCCC/C=C\CCCCCCCC(=O)NC(COC(=O)NCCN1CCCCC1)C(=O)OCCCCCCCCOC(=O)C(CCCCCC)CCCCCCCC (stereo not drawn) [Lipid 700],15,143,1.79E+05,3.07E+08,9.03E+05,8.73E+07,3.11E+05,1.21E+07,5.65E+08,
CCCCCCCCC(CCCCCC)C(=O)OCCCCCCCCOC(=O)NC(COC(=O)NCCN1CCCCC1)C(=O)OCCCCCCCCOC(=O)C(CCCCCC)CCCCCCCC (stereo not drawn) [Lipid 888],,,,,,,,,,IL-6 at 2 h ([4]; 2 hours post injection): 5.5 pg/mL; IL-6 at 24 h ([4]; 24 hours post injection): 5.71 pg/mL; Kidney (p/s) [5]: 2.72E+07 p/s; Large intestine (p/s) [5]: 1.07E+08 p/s; Liver (p/s) [5]: 4.61E+09 p/s; Small intestine (p/s) [5]: 8.59E+08 p/s; Spleen (p/s) [5]: 2.55E+08 p/s; Whole body (p/s) [5]: 4.10E+09 p/s; MCP-1 at 2 h ([6]; 2 hours post injection): 396 pg/mL; MCP-1 at 24 h ([6]; 24 hours post injection): 206 pg/mL
